Test results: patent US12497411B2, “Muscarinic acetylcholine receptor subtype 4 antagonists in the treatment of anemia” (COLD SPRING HARBOR LABORATORY, priority 2019, dated 2025)

Legend:
[1] = molecular target: T1, human recombinant CHRM3 receptor (Homo sapiens, UniProt P20309); test: Radioligand binding assay, CHRM3; conditions: [3H]4-DAMP (0.2 nM), CHO cell membranes, 60 minutes at room temperature; read-out: Ki M3
T1 construct: expressed in transfected cells; host or cells: CHO cells (membranes)
In short: (§1)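 Membranes from CHO cells expressing each human recombinant receptor; radioligands [^3H]pirenzepine (2 nM) for CHRM1, [^3H]AF-DX 384 (2 nM) for CHRM2, [^3H]4-DAMP at 0.2 nM for CHRM3 and 0.3 nM for CHRM5. Compounds at 1×10^−9 to 1×10^−5 M; 60 min, room temperature. Percent inhibition of radioligand binding; Ki determined.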

[2] = test system: PHZ induced hemolytic anemia in C57bl/6 mice; test: PHZ induced hemolytic anemia mouse model, CBC; type: in vivo; conditions: 100 mg/kg oral once per day, CBC on day 6, vs DMSO control
Description: Animal experiments were conducted in the Cold Spring Harbor Laboratory Animal Shared Resource in accordance with Institutional Animal Care and Use Committee-approved procedures. 4-6 weeks old C57bl/6 mice, purchased from Jackson Laboratory and randomly distributed into compound and control treatment groups, were given through oral delivery of PCS1055 (50 mg/kg or 100 mg/kg) twice per day or PD102807 (50 mg/kg or 100 mg/kg) once per day everyday for 3 days. On day 3, mice were intraperitoneally injected with 60 mg/kg PHZ. Mice were then given through oral delivery of PD102807 (50 mg/kg or 100 mg/kg) once per day every day for 2 days. Peripheral blood samples were collected retro-orbitally on day 6 using heparinized capillary tubes in blood collection tubes with K2-EDTA. CBC was performed using Hemavet 950. […] C57bl/6 mice were injected with 60 mg/kg phenylhydrazine to induce hemolysis. Mice were delivered with either vehicle control or Compound A or B (30 mg/kg or 100 mg/kg). Peripheral blood samples were collected retro-orbitally using heparinized capillary tubes into blood collection tubes with K2-EDTA. Complete blood counting was performed using Hemavet 950. Hematocrit (HCT), red blood cell (RBC) and hemoglobin (Hb) values are shown. […] C57bl/6 mice were injected with 60 mg/kg phenylhydrazine to induce hemolysis. Mice were delivered with subcutaneous injection with either vehicle control or Compound B (1.5 mg/kg, 3 mg/kg, or 5 mg/kg) or I (0.5 mg/kg, 0.7 mg/kg, or 1 mg/kg). Peripheral blood samples were collected retro-orbitally using heparinized capillary tubes into blood collection tubes with K2-EDTA. Complete blood counting was performed using Hemavet 950. Hematocrit (HCT), red blood cell (RBC) and hemoglobin (Hb) values are shown.

[3] = molecular target: T2, human recombinant CHRM2 receptor (Homo sapiens, UniProt P08172); test: Radioligand binding assay, CHRM2; conditions: [3H]AF-DX 384 (2 nM), CHO cell membranes, 60 minutes at room temperature; read-out: Ki M2
T2 construct: expressed in transfected cells; host or cells: CHO cells (membranes)
T2 sequence (P08172 1-466): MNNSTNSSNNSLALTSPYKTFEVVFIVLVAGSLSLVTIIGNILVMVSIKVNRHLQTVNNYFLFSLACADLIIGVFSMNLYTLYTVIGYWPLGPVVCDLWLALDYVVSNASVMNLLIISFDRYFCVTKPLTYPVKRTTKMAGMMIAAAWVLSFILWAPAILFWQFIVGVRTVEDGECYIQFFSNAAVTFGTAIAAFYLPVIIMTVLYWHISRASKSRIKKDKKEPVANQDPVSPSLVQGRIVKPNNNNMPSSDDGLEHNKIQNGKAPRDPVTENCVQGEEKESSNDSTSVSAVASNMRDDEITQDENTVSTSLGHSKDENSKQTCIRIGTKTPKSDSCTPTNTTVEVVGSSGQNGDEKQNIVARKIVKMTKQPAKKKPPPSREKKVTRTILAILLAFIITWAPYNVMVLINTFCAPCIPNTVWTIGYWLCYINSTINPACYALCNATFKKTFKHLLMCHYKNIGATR
In short: as §1

CHRM4 [4] = molecular target: T3, CHRM4 (Homo sapiens, UniProt P08173); test: Radioligand binding assay, CHRM4; parameters: expressed in transfected cells; host or cells: CHO cells (membranes); conditions: [3H]4-DAMP (0.2 nM), CHO cell membranes, 60 minutes at room temperature; read-out: Ki M4
T3 sequence (P08173 1-479): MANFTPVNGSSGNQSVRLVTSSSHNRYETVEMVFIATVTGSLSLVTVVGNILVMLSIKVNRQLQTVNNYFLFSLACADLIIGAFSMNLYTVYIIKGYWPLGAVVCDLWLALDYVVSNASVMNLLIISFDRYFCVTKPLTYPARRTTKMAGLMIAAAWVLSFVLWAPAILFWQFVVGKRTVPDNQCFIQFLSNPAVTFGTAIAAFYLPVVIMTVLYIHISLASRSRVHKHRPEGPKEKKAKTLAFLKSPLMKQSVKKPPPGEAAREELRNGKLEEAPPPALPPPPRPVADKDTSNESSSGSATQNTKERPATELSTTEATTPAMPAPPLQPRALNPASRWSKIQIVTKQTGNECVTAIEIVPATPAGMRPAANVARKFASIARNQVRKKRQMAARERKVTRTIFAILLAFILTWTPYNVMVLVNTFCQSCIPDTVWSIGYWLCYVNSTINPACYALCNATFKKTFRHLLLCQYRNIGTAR

Mouse BFU-Es = test: Primary mouse BFU-E culture assay (cell expansion); type: cell-based
Description: Primary mouse BFU-Es were isolated from mouse embryonic day 14.5 (E14.5) fetal liver and cultured in StemSpan serum-free expansion medium, and the numbers of cells formed were counted during culture. BFU-Es were infected with either viruses encoding control shRNA or viruses encoding shRNAs targeting Chrm4, and numbers of GFP+ cells formed during culture were counted. DMSO or 25 mg/kg oxyphenonium bromide was intraperitoneally injected into the hemolysis mouse model, Mx1-cre Srsf2 P95H/WT MDS mouse model, and aging mouse model. Complete blood count (CBC) was performed after compound injection. CREB ChIP-Seq was performed on BFU-Es after culture with 100 μM oxyphenonium bromide for 45 minutes. RNA-Seq was performed in BFU-Es after being cultured with DMSO or oxyphenonium bromide for 3 days.
BFU-Es were isolated from mouse embryonic day 14.5 fetal liver using fluorescence-activated cell sorting (FACS) method previously described (Flygare et al., Blood 117, 3435-3444 (2011)). BFU-Es were cultured in StemSpan SFEM II medium containing rmSCF (100 ng/ml), EPO (2 U/ml), rmIGF-1 (40 ng/ml), dexamethasone (1 nmol/ml or 10 nmol/ml), oxyphenonium bromide ([…]), and orphenadrine citrate (1 μmol/ml).
BFU-Es were isolated from mouse embryonic day 14.5 fetal liver using fluorescence-activated cell sorting (FACS) method. BFU-Es were cultured in StemSpan SFEM II medium containing rmSCF (100 ng/ml), EPO (2 U/ml), rmIGF-1 (40 ng/ml), dexamethasone (1 nM), together with either DMSO, PCS1055 (5 nM), or PD102807 (3 nM). Numbers of cell formed were counted during in vitro culture.
FIGS. 7 and 8 show the results of the primary BFU-E culture assay. […] Highly purified BFU-Es were isolated as lin-Ter-119-CD16/CD32-Sca-1-CD41-c-Kit+CD71/Cd24a^10% low population using the fluorescence-activated cell sorting (FACS) method. BFU-Es were cultured in medium containing rmSCF, EPO, and rmIGF-1, in the presence of PD102807 or Compounds A-K at indicated concentrations.

CHRM4 [5] = molecular target: T3, CHRM4; conditions: previous reports (Croy 2016; Böhme 2002); cited from earlier work

T1 sequence (P20309 whole entry): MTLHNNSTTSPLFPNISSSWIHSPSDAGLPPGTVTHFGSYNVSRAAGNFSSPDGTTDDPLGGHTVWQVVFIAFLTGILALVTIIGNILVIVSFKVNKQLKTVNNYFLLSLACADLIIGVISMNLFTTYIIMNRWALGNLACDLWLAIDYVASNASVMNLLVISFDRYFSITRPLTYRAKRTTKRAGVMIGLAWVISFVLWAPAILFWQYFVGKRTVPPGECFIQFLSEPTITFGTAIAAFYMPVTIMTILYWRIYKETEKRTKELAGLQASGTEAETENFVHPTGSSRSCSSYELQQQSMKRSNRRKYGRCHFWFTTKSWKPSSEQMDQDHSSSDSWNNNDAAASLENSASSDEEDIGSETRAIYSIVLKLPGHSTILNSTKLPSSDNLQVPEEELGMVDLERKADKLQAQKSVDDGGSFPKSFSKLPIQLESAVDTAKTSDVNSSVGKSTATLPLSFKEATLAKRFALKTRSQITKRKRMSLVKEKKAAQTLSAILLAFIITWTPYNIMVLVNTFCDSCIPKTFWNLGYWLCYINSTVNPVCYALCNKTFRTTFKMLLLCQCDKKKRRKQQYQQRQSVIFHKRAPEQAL

In the case of CCOC(=O)c1c(C)[nH]c2ccc3c(c12)CN1CCc2cc(OC)ccc2C1O3 (centres unmarked) [PD102807, reference compound], the Ki [1] is reported as 210 nM, the “HCT, PHZ-induced anemia” value [2] is reported as “significantly improved” and the “RBC, PHZ-induced anemia” value [2] is reported as “significantly improved”. The Ki [3] was 2500 nM, the Ki (CHRM4 [4]) was 5.1 nM and the “expansion of BFU-E cells in cell culture” value (Mouse BFU-Es; 3 nM PD102807) was “increase the expansion of BFU-E cells”. The “BFU-E expansion, cell numbers at day 9” value (Mouse BFU-Es; indicated concentrations, vs untreated) was “induce BFU-E expansion” and the “selectivity for CHRM4 over other muscarinic acetylcholine receptor family members” value (CHRM4 [5]) was “selectively inhibits CHRM4”.
